According to patent US10996215B2, “Methods for determining drug efficacy for the treatment of diffuse large B-cell lymphoma, multiple myeloma, and myeloid cancers” (CELGENE CORPORATION, priority 2013, dated 2021):

Key:
[1] = system: Aiolos, Ikaros, IRF4, Cereblon; assay: Western blot of Aiolos, Ikaros, IRF4, Cereblon in DLBCL cell lines; format: cell-based, human
Procedure: Immunoblots were probed with antibodies recognizing: Aiolos, Ikaros, Cereblon, IRF4, c-myc, CD44, EZH2, EBF 1, PU. 1, and β-actin. Signals were detected with a LI-COR imager
The following steps can be performed to harvest cells in preparation for Western Blot analysis. The steps are performed on ice and any centrifugation is performed in a 4° C. refrigerated centrifuge. RIPA lysis buffer (Pierce, cat #89900) is first prepared by adding […] proteinase inhibitors (Pierce, cat #78443) to 1 mL of RIPA buffer. Subsequently, cells are washed once in ice-cold phosphate buffered saline (PBS). The cells are then lysed with 0.25 mL RIPA lysis buffer. The PBMCs are placed on ice for 30 minutes and vortexed every 10 minutes. Lysates are frozen and stored at −80° C. prior to further processing.
Lysates are placed in a QIAshredder® tube (QIAGEN, cat #79656) and spun down 30 sec, top speed (13200 rpm) in an Eppendorf benchtop centrifuge (Model 5415 R). The lysate is then transferred to a 1.5 mL clear Eppendorf tube and spun down 10 min at top speed. The supernatent is collected without disturbing the cell debris pellet. The supernatent is dry ice frozen and stored at −80° C. prior to analysis.
The protein concentration in supernatent is measured using BCA assay and the expected protein yield is about 0.5-5 μg/μL, or 125-1250 μg total. Approximately ≥10 μg protein per lane is loaded for western blotting (IRF4, IKZF3, etc.) using antibodies against the human proteins.
Membranes are immunblotted with anti-Aiolos (Santa Cruz Biotechnology, Dallas, Tex.), anti-Ikaros (Millipore, Billerica, Mass.) and anti-Actin (Sigma, St. Louis, Mo.; or LI-COR Biosciences, Lincoln, Nebr.) and secondary antibodies (LI-COR Biosciences, Lincoln, Nebr.). The blots are analyzed on Odyssey imager (LI-COR Biosciences, Lincoln, Nebr.).

ZFP91, Aiolos = assay: Western blot of ZFP91 and Aiolos in OCI-LY10 cells; format: cell-based; settings: OCI-LY10, 6 hrs
Excerpt: (§1) Cells were harvested with RIPA buffer, and proteins from cell lysates were separated by 10% sodium dodecyl sulfate polyacrylamide (SDS-PAGE) gel electrophoresis (Bio-Rad), and transferred to PVDF membranes (Invitrogen). Immunoblots were probed with antibodies recognizing Aiolos (9-9-7; Celgene), CK1α(Abcam), GSPT1 (Sigma), ZFP91 (LSBio) and β-actin (Li-Cor). Signals were detected with a Li-Cor Odyssey imager.
Immunoblots were probed with antibodies recognizing Aiolos (9-9-7; Celgene), GSPT1 (Sigma), ZFP91 (LSBio) and β-actin (Li-Cor). Signals were detected with a Li-Cor Odyssey imager.
as §1, with “OCI-LY10 cells treated with DMSO or various drugs for 6 hrs. Cells” for “Cells”, “buffer” for “buffer,”, “recognizing:” for “recognizing”
OCI-LY10 cells were then treated with DMSO or various drugs for 6 hrs. […] Cells were harvested with RIPA buffer and Proteins from cell lysates were separated by 10% sodium dodecyl sulfate polyacrylamide (SDS-PAGE) gel electrophoresis (Bio-Rad), and transferred to PVDF membranes (Invitrogen). Immunoblots were probed with antibodies recognizing: Aiolos (9-9-7; Celgene), ZFP91 (LSBio), ZNF198 (LSBio) and β-actin (Li-Cor). Signals were detected with a Li-Cor™ Odyssey imager.
OCI-LY10 cells stably transduced with shCRBN 11 were induced for 48 hrs with either 0 or 10 ng/ml of doxycycline. […] Where MLN4924 treatments were present, MLN4924 was pre-incubated for 1 hr prior to drug treatment. Cells were harvested with RIPA buffer and Proteins from cell lysates were separated by 10% sodium dodecyl sulfate polyacrylamide (SDS-PAGE) gel electrophoresis (Bio-Rad), and transferred to PVDF membranes (Invitrogen). Immunoblots were probed with antibodies recognizing: CRBN-65, Aiolos (9-9-7; Celgene), Ikaros (Millipore), ZFP91 (LSBio) and β-actin (Li-Cor). Signals were detected with a Li-Cor Odyssey imager.

IFN pathway = assay: effect on IFN pathway (FIG. 13); format: cell-based
Aiolos, Ikaros, ZFP91 = assay: Western blot in myeloma, lymphoma and primary B cells; format: cell-based; settings: U266, DF15, RPMI8226, OCI-LY10, WSU-DLCL2, WSU-DLCL2 Compound A resistant, primary B cells; 8 hours
Procedure: Multiple myeloma cells (U266, DF15, RPMI8226), diffuse large B cell lymphoma cells (OCI-LY10, WSU-DLCL2, WSU-DLCL2 Compound A resistant), and primary B cells were treated with DMSO, […] or […] for 8 hours. Cells were harvested and were treated in cell lysis buffer to generate cell lysates. Proteins from cell lysate were separated by gel electrophoresis (10% SDS-PAGE) and transferred to nitrocellulose membranes. Immunoblots were then probed with antibodies recognizing Aiolos, CRBN, Ikaros, ZFP91 (LSBio), IRF4, IRF7, Myc, and β-actin (Li-Cor).

IRF7, IFN response = assay: IFN response, Western blot of IRF7 in U2932 (ABC) cells; format: cell-based
Procedure: U2932 (ABC) cells were cultured and cell-passaged long-term in Compound A as described in Section 6.10. Levels of Aiolos, IRF7, and β-actin (control) were assessed using Western blotting, essentially as described above in Section 6.8.

CSNK1A1 (CK1α), Ikaros = assay: MG-132, MLN-4924 or Compound A pre-treatment, Western analysis in HNT-34 cells; format: cell-based; settings: 10 μM Compound A 1.5 h, 0.3 μM or less lenalidomide, 3 h or 6 h
MDS-L = assay: 4 d BrdU cell assay / tritiated thymidine, sensitivity; format: cell-based; settings: FIG. 22B
Procedure: (§2) Sensitivity to lenalidomide treatment in a panel of myeloid cancer cell lines was evaluated by tritiated thymidine and/or BrdU assays.

HNT-34 = assay: as above; format: cell-based; settings: FIG. 22B
Procedure: as §2

## Cc1nc2cccc(N)c2c(=O)n1C1CCC(=O)NC1=O (stereo not drawn) [Compound A, 3-(5-amino-2-methyl-4-oxo-4H-quinazolin-3-yl)-piperidine-2,6-dione]
[1]; DLBCL cell lines, 1 μM or 10 μM, within 72 hours
  IRF4 levels: reduce
[1]; Karpas 422 (GCB) and TMD8 (ABC), 10 μM, 1, 6 or 12 hours, vs DMSO
  Aiolos levels: decrease
[1]; WSU-DLCL2 (GCB) and OCI-LY10 (ABC), 10 μM, 1, 6 or 12 hours, vs DMSO
  Aiolos and Ikaros levels: decreasing
[1]; nine GCB and ABC DLBCL cell lines, 1 μM or 10 μM, 72 hours
  CRBN levels: remained constant
[1]; nine GCB and ABC DLBCL cell lines, 1 μM or 10 μM, 72 hours, vs DMSO
  Aiolos and Ikaros levels: decreasing
ZFP91, Aiolos; 100 mM thalidomide, 10 mM lenalidomide, 1 mM pomalidomide, 1 μM or 10 μM Compound A, 100 nM Compound B, FIG. 17A
  levels of ZFP91 and Aiolos: reduced
ZFP91, Aiolos; 1 or 10 μM lenalidomide, 0.1, 1 or 10 μM Compound A, FIG. 17B
  levels of ZFP91 and Aiolos: reduced
IFN pathway; FIG. 13A
  IFIT1, IFIT3, DDX58, XAF1, IFIH1, and OAS3 protein expression: upregulates
IFN pathway; FIG. 13B
  DDX58, IFI27, IFIT1, IFIT3, DDX58, and XAF1 gene expression: upregulates
IFN pathway; FIG. 13C
  ISG15 and OAS3 gene expression: upregulates
IFN pathway; FIG. 13E
  IRF changes: induces
IFN pathway; FIG. 13F
  IFIT1 and IFIT3 protein expression: upregulates
  IKKE protein level: reduces
  TBK1 phosphorylation (TBK1-PO4): upregulates
IFN pathway; FIG. 13G
  levels of STAT or phosphorylated STAT: induces changes
Aiolos, Ikaros, ZFP91
  levels of Aiolos, Ikaros, and ZFP91: reduced
IRF7, IFN response; FIG. 10A
  IFN response gene expression: up-regulates
IRF7, IFN response; U2932 (ABC), Western blot
  IRF7 protein expression: upregulates
CSNK1A1 (CK1α), Ikaros
  lenalidomide induced CSNK1A1 degradation after Compound A pre-treatment: blocks
MDS-L
  sensitivity of MDS-L cells: sensitive
HNT-34
  sensitivity of HNT-34 cells: only MDS-L cells were sensitive to Compound A
